Measured values reported in article PMC3794980, “Identification of Conserved and HLA Promiscuous DENV3 T-Cell Epitopes” (PLoS Neglected Tropical Diseases, 2013).
Like-named read-outs stand apart in the source and are kept apart here.

Assays:
Assay in all cases: biochemical
Format in all cases: binding
[1] = biological target: DRB4*0101 (Homo sapiens, UniProt P01903+P13762, G164S)
[2] = biological target: DRB1*1101 (Homo sapiens, UniProt P01903+P01911, A100R/A169T/A87E/I96F/K41T/L162R/M171V/P40S/Q125H/Q178H/Q39Y/Q99D/R42S/S66Y/T262R/V115G/W38E)
[3] = biological target: DRB1*0405 (Homo sapiens, UniProt P01903+P01911, A100R/A169T/D86S/F76Y/I96L/K127E/L162R/M171V/N62H/P40V/Q125Y/R42H/S133A/S149N/S66Y/V115G/V209L/W38E)
[4] = biological target: DRB1*1302 (Homo sapiens, UniProt P01903+P01911, A100E/A169T/K41T/L162R/M171V/P40S/Q125H/Q178H/Q39Y/Q99D/R42S/S66N/T262R/V115G/W38E/Y61H)
[5] = biological target: DRB1*0401 (Homo sapiens, UniProt P01903+P01911, A100K/A169T/F76Y/I96L/K127E/L162R/M171V/N62H/P40V/Q125Y/R42H/S133A/S149N/S66Y/V115G/V209L/W38E)
[6] = biological target: DRB1*0101 (Homo sapiens, UniProt P01903+P01911, A100R/D57E/F55L/F60I/F76Y/I96L/L162R/M171V/P40L/Q125E/R42F/V115G/Y59C)
[7] = biological target: DRB1*0404 (Homo sapiens, UniProt P01903+P01911, A100R/A169T/F76Y/I96L/K127E/L162R/M171V/N62H/P40V/Q125Y/R42H/S133A/S149N/S66Y/V209L/W38E)
[8] = biological target: DRB1*0701 (Homo sapiens, UniProt P01903+P01911, A100R/A102G/A103Q/D57E/D86V/E43K/F76Y/K127E/L162R/M171V/P40G/Q125H/Q99D/R33Q/R42Y/R54Q/S133A/S66F/T210M/V115G/Y107V/Y59L/Y89S)
[9] = biological target: DRB5*0101 (Homo sapiens, UniProt P01903+Q30154)
[10] = biological target: DRB1*0802 (Homo sapiens, UniProt P01903+P01911, A100R/A103L/A169T/F76Y/H45Y/I96F/K41T/L162R/M171V/P40S/Q125H/Q178H/Q39Y/Q99D/R218S/R42G/S66Y/V115G/W38E)
[11] = biological target: DRB1*0301 (Homo sapiens, UniProt P01903+P01911, A100K/A102G/A103R/A169T/F55Y/I96L/K41T/L162R/M171V/P40S/Q125H/Q178H/Q39Y/R42S/S66N/T106N/T262R/W38E/Y61H)
[12] = biological target: DRB3*0101 (Homo sapiens, UniProt P01903+P79483)
[13] = biological target: DRB1*0901 (Homo sapiens, UniProt P01903+P01911, A100R/A103E/D57H/D86V/F55Y/F60I/F76Y/I96F/K127E/L162R/M171V/P40D/Q125H/Q99R/R33Q/R42F/S133A/S66N/T210M/V115G/W38K/Y107V/Y59G/Y89S)
[14] = biological target: DRB1*1501 (Homo sapiens, UniProt P01903+P01911)
[15] = competitive inhibition of radiolabeled standard peptide, '-' distinct from ND, read-out: Binding Affinity (nM) DRB1*1302
[16] = competitive inhibition of radiolabeled standard peptide, '-' distinct from ND, read-out: Binding Affinity (nM) DRB1*0901

DRB1*0301, sequence (P01903 26-254, other chains not shown): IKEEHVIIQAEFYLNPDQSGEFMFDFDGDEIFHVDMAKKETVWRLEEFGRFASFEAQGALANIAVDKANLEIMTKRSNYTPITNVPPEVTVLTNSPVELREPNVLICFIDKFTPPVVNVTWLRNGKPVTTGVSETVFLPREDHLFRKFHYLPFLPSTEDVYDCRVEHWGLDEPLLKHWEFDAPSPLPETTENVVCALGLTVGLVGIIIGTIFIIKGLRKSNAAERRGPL
DRB1*1101, sequence (P01903 26-254, other chains not shown): as above
DRB1*1302, sequence (P01903 26-254 limits assumed, other chains not shown): as the sequence (P01903 26-254, other chains not shown) above

Compound | IC50 [1] | IC50 [2] | IC50 [3] | IC50 [4, 15] | IC50 [5] | IC50 [6] | IC50 [7] | IC50 [8] | IC50 [9] | IC50 [10] | IC50 [11] | IC50 [12] | IC50 [4] | IC50 [13] | IC50 [14] | IC50 [13, 16]
CC(C)C[C@H](NC(=O)[C@H](CCCNC(=N)N)NC(=O)[C@H](Cc1c[nH]cn1)NC(=O)[C@H](CC(=O)O)NC(=O)[C@H](CS)NC(=O)[C@H](CC(C)C)NC(=O)[C@H](CCC(N)=O)NC(=O)[C@@H](NC(=O)[C@H](Cc1ccc(O)cc1)NC(=O)[C@@H](NC(=O)[C@H](CCC(=O)O)NC(=O)[C@H](CCCNC(=N)N)NC(=O)[C@H](CC(C)C)NC(=O)[C@H](CCCCN)NC(=O)[C@@H](N)CC(C)C)C(C)C)[C@@H](C)O)C(=O)O [NS1 169-183] | 878 nM | 4800 nM | 277 nM | 9960 nM | 474 nM | 226 nM | 457 nM | 136 nM | 1300 nM | 2580 nM | 2360 nM | 747 nM |  |  |  | 
CSCC[C@H](NC(=O)[C@@H](NC(=O)[C@H](CCC(N)=O)NC(=O)[C@H](Cc1ccccc1)NC(=O)[C@H](CC(N)=O)NC(=O)[C@H](CCCCN)NC(=O)[C@@H]1CCCN1C(=O)[C@@H](N)CC(N)=O)[C@@H](C)O)C(=O)N1CCC[C@H]1C(=O)NCC(=O)N[C@H](C(=O)N[C@@H](Cc1ccccc1)C(=O)N[C@@H](CCC(N)=O)C(=O)N[C@H](C(=O)N[C@H](C(=O)O)[C@@H](C)O)[C@@H](C)O)[C@@H](C)O [NS3 105-119] | 843 nM | 86 nM | 96 nM |  | 5.4 nM | 49 nM | 39 nM | 2790 nM | 177 nM | 175 nM | 11600 nM | 2530 nM | 2390 nM | 407 nM |  | 
CC[C@H](C)[C@H](NC(=O)[C@H](C)N)C(=O)N[C@@H](CCC(N)=O)C(=O)N[C@@H](CCC(N)=O)C(=O)N[C@H](C(=O)N[C@@H](CCCNC(=N)N)C(=O)N[C@@H](CO)C(=O)N[C@@H](CC(C)C)C(=O)N[C@H](C(=O)NCC(=O)N[C@@H](CC(N)=O)C(=O)N[C@@H](CCC(=O)O)C(=O)N[C@@H](CCC(=O)O)C(=O)N[C@@H](Cc1ccccc1)C(=O)N[C@@H](CC(C)C)C(=O)N[C@@H](CC(=O)O)C(=O)N[C@@H](Cc1ccc(O)cc1)C(=O)O)[C@@H](C)CC)C(C)C [NS5 866-882] | 2020 nM | 421 nM |  |  | 12 nM | 4.3 nM |  |  |  |  | 178 nM | 8090 nM | 543 nM | 66 nM | 148 nM | 
CC[C@H](C)[C@H](NC(=O)[C@H](CC(=O)O)NC(=O)CNC(=O)[C@@H](NC(=O)[C@@H](NC(=O)[C@@H](NC(=O)[C@@H](NC(=O)[C@H](CC(C)C)NC(=O)[C@@H](N)CCCCN)[C@@H](C)O)C(C)C)C(C)C)C(C)C)C(=O)N[C@H](C(=O)NCC(=O)N[C@H](C(=O)N[C@@H](CC(C)C)C(=O)N[C@@H](CCC(=O)O)C(=O)N[C@@H](CCC(N)=O)C(=O)O)C(C)C)[C@@H](C)CC [NS1 85-99] | 220 nM | 807 nM | 1400 nM | 483 nM | 88 nM |  | 2660 nM | 70 nM | 77 nM |  | 533 nM | 1680 nM |  |  | 21 nM | 42 nM
CC[C@H](C)[C@H](NC(=O)[C@H](CC(C)C)NC(=O)[C@H](CC(N)=O)NC(=O)[C@H](Cc1ccc(O)cc1)NC(=O)[C@H](CC(N)=O)NC(=O)[C@@H]1CCCN1)C(=O)N[C@H](C(=O)N[C@@H](CCSC)C(=O)N[C@@H](CC(=O)O)C(=O)N[C@@H](CCC(=O)O)C(=O)N[C@@H](C)C(=O)N[C@@H](Cc1c[nH]cn1)C(=O)N[C@@H](Cc1ccccc1)C(=O)N[C@H](C(=O)N[C@@H](CC(=O)O)C(=O)O)[C@@H](C)O)[C@@H](C)CC [NS3 277-291] | 208 nM | 4610 nM | 402 nM | 68 nM |  |  | 1530 nM | 2700 nM | 7130 nM | 396 nM | 37 nM | 4.4 nM |  |  | 1320 nM | 2600 nM
